Source: article PMC3949517 (Acta Crystallographica Section D: Biological Crystallography, 2014)
Values joined by “and” are separate entries in the source; they are usually repeats but may differ in a detail not shown here. Equal values may be shown once. Bridge positions count the residues as written; N and C are the ends. Ends that are not written are not given here. Peptide text beside a SMILES is read from it. * marks the point of attachment. Biotin = O=C1N[C@H]2[C@H](CS[C@H]2CCCCC(=O)*)N1

Assays:
scFvA17 = format: binding, human
[1] = tested on: recombinant Fab reactibodies (FabA17κ, FabA17λ); format: binding, human
[2] = tested on: A17κ reactibody (FabA17κ); format: biochemical, human
[3] = tested on: A17λ reactibody (FabA17λ); format: biochemical, human
[4] = tested on: A17κ reactibody (FabA17κ); format: biochemical, human; remark: listed apart in the source
A17 reactibody = conditions: cited from earlier work
A17κ reactibody = format: binding, human
A17λ reactibody = format: binding, human; conditions: for Kd: read-out: Kd (BiaCore affinity constant)
[5] = tested on: A17κ reactibody (FabA17κ); format: biochemical, human; remark: listed apart in the source
[6] = tested on: A17λ reactibody (FabA17λ); format: biochemical, human; remark: listed apart in the source
[7] = molecular target: T1, pep50L, linear (reduced) synthetic peptide 50 (synthetic (phage library-derived), cysteine pairing not given here); assay: SPR; Biacore T200, SA sensor chip; biotinylated synthetic peptides immobilised, antibodies injected at a range of concentrations, 10 µl/min, 298 K; association and dissociation 300 s each; 1:1 binding model, affinity-analysis option; conditions: both partners purified
T1 construct: also called pep50 linear form; source: synthetic peptide
T1 chain: GACRNPWGLTCGAAGAEK(Biotin)-NH2

[8] = molecular target: T2, pep54L, linear (reduced) synthetic peptide 54 (synthetic (phage library-derived), cysteine pairing not given here); assay: as above; conditions: both partners purified
T2 construct: also called pep54 linear form; source: synthetic peptide
T2 chain: GACPNPWGLLCGAAGAEK(Biotin)-NH2

CRNPWGLTC (disulfide 1-9 (inferred)) [pep50]
binding to scFvA17 (in words) (scFvA17): specifically bind
effect of phosphonylation of scFv on ELISA signals (in words) (scFvA17): significantly enhanced the ELISA signals
binding by recombinant Fab reactibodies (in words) [1]: capable of binding
effect of phosphonylation of the Fabs on level of binding (in words) [1]: reduced the level of binding

p-nitrophenyl 8-methyl-8-azabicyclo[3.2.1]octylphenylphosphonate [phosphonate X]
Ea (activation-energy parameter), phosphonate X [2]: 12.5 1.3 kcalmol^1
Kd ([2]; pH 7.4): 120 µM and 150 µM and 80 µM and 130 µM
k2, phosphonate X ([2]; pH 7.4): 0.24 0.03 min^1
Ea (activation-energy parameter), phosphonate X [3]: 11.4 0.5 kcalmol^1
Kd ([3]; pH 7.4): 110 µM and 145 µM and 170 µM and 130 µM and 180 µM
k2, phosphonate X ([3]; pH 7.4): 0.28 0.02 min^1
rate of induced-fit stage, A17κ vs A17λ (in words) [4]: induced-fit stage is more rapid in the κ variant
reaction with A17 reactibody (in words) (A17 reactibody): irreversibly binding

CC(C)C[C@H](NC(=O)CNC(=O)[C@H](Cc1c[nH]c2ccccc12)NC(=O)[C@@H]1CCCN1C(=O)[C@H](CC(N)=O)NC(=O)[C@H](CCCNC(=N)N)NC(=O)[C@H](CS)NC(=O)[C@H](C)NC(=O)CN)C(=O)N[C@H](C(=O)N[C@@H](CS)C(=O)NCC(=O)N[C@@H](C)C(=O)N[C@@H](C)C(=O)NCC(=O)N[C@@H](C)C(=O)N[C@@H](CCC(=O)O)C(=O)N[C@@H](CCCCNC(=O)CCCC[C@@H]1SC[C@@H]2NC(=O)N[C@@H]21)C(N)=O)[C@@H](C)O [50L] (H-GACRNPWGLTCGAAGAEK(Biotin)-NH2)
affinity (in words) (A17κ reactibody): high affinity
binding activity of A17κ compared with A17λ (in words) (A17κ reactibody): A17κ was more active in binding either the linear or the cyclic form of pep50
affinity (in words) (A17λ reactibody): high affinity
Kd (A17λ reactibody): 2.3 µM

CC(C)C[C@H](NC(=O)CNC(=O)[C@H](Cc1c[nH]c2ccccc12)NC(=O)[C@@H]1CCCN1C(=O)[C@H](CC(N)=O)NC(=O)[C@@H]1CCCN1C(=O)[C@H](CS)NC(=O)[C@H](C)NC(=O)CN)C(=O)N[C@@H](CC(C)C)C(=O)N[C@@H](CS)C(=O)NCC(=O)N[C@@H](C)C(=O)N[C@@H](C)C(=O)NCC(=O)N[C@@H](C)C(=O)N[C@@H](CCC(=O)O)C(=O)N[C@@H](CCCCNC(=O)CCCC[C@@H]1SC[C@@H]2NC(=O)N[C@@H]21)C(N)=O [54L] (H-GACPNPWGLLCGAAGAEK(Biotin)-NH2)
Kd (A17λ reactibody): 18 µM

CCOP(=O)(OCC)Oc1ccc([N+](=O)[O-])cc1 [paraoxon, O,O-Diethyl O-(4-nitrophenyl)phosphate]
k2/KD, paraoxon [5]: 1.15 ± 0.52 M–1 min–1
k2/Kd, paraoxon ([5]; pH 7.4): 1.2 0.5 M ^1min^1
k2/KD, paraoxon [6]: 1.63 ± 0.65 M–1 min–1
k2/Kd, paraoxon ([6]; pH 7.4): 1.6 0.6 M ^1min^1
reaction with A17 reactibody (in words) (A17 reactibody): hydrolyzing

CC(C)C[C@@H]1NC(=O)CNC(=O)[C@H](Cc2c[nH]c3ccccc23)NC(=O)[C@@H]2CCCN2C(=O)[C@H](CC(N)=O)NC(=O)[C@H](CCCNC(=N)N)NC(=O)[C@@H](NC(=O)[C@H](C)NC(=O)CN)CSSC[C@@H](C(=O)NCC(=O)N[C@@H](C)C(=O)N[C@@H](C)C(=O)NCC(=O)N[C@@H](C)C(=O)N[C@@H](CCC(=O)O)C(=O)N[C@@H](CCCCNC(=O)CCCC[C@@H]2SC[C@@H]3NC(=O)N[C@@H]32)C(N)=O)NC(=O)[C@H]([C@@H](C)O)NC1=O [50C] (H-GACRNPWGLTCGAAGAEK(Biotin)-NH2; disulfide 3-11)
affinity (in words) (A17κ reactibody): high affinity
binding activity of A17κ compared with A17λ (in words) (A17κ reactibody): A17κ was more active in binding either the linear or the cyclic form of pep50
Kd (A17κ reactibody; read-out: Kd (BiaCore affinity constant)): 0.9 µM
affinity (in words) (A17λ reactibody): high affinity

CC(C)C[C@@H]1NC(=O)CNC(=O)[C@H](Cc2c[nH]c3ccccc23)NC(=O)[C@@H]2CCCN2C(=O)[C@H](CC(N)=O)NC(=O)[C@@H]2CCCN2C(=O)[C@@H](NC(=O)[C@H](C)NC(=O)CN)CSSC[C@@H](C(=O)NCC(=O)N[C@@H](C)C(=O)N[C@@H](C)C(=O)NCC(=O)N[C@@H](C)C(=O)N[C@@H](CCC(=O)O)C(=O)N[C@@H](CCCCNC(=O)CCCC[C@@H]2SC[C@@H]3NC(=O)N[C@@H]32)C(N)=O)NC(=O)[C@H](CC(C)C)NC1=O [54C] (H-GACPNPWGLLCGAAGAEK(Biotin)-NH2; disulfide 3-11)
binding activity of A17λ compared with A17κ (in words) (A17λ reactibody): A17λ was more active than A17κ

CPNPWGLLC (disulfide 1-9 (inferred)) [pep54]
binding to scFvA17 (in words) (scFvA17): specifically bind
effect of phosphonylation of scFv on ELISA signals (in words) (scFvA17): significantly enhanced the ELISA signals
binding by recombinant Fab reactibodies (in words) [1]: capable of binding
effect of phosphonylation of the Fabs on level of binding (in words) [1]: reduced the level of binding

B1: FabA17λ (Fab of the A17 reactibody with the λ light-chain constant domain) (Fab, V domains shown)
VH: QVQLQESGPGLVKPSETLSLTCAVSGYSISSGYYWGWIRQPPGKGLEWIGSIYHSGSTYYNPSLKSRVTISVDTSKNQFSLKLSSVTAADTAVYYCAGLTQSSHNDANWGQGTLVTVSS
VL: QSVLTQPPSVSAAPGQKVTISCSGSSSNIGNNYVSWYQQLPGTAPKLLIYDNNKRPSGIPDRFSGSKSGTSATLGITGLQTGDEADYYCGTWDSSLNPVFGGGTKLTVL
notes: as the heavy chain of m1 (HCH: A17 VH, human CH1, hinge region); natural-type λ light chain: A17 VL (identical to the VL of m1) with the J2 segment and the constant region of human λ2 light chain; also called FabA17 λ variant; source: Pichia pastoris GS115, culture medium, purified (Talon, Mono Q, Superdex 75)
Kd [7]: 2.3 µM
Kd [8]: 18 µM
